# Source: PubChem BioAssay AID256 (DTP/NCI, 2004)
# “And” between values parts separate entries of the source, which are not always exact repeats. Identical values can stand only once. Inconclusive results and toxic doses are left out.
# Test system: CD2F1 mice, L1210 leukemia ip, survival T/C
# Experiment: NCI In Vivo Anticancer Drug Screen. Data for tumor model L1210 Leukemia (intraperitoneal) in CD2F1 (CDF1) mice
# Conditions: higher = longer survival
# Outline: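 Transplantable tumor in mice; compound-treated vs vehicle-treated groups. Read-out = treated/control ratio of the measured endpoint.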
# [1] = endpoint: mean survival time, dose: 100.0 mg/kg/injection, schedule: Q01DX001 (ip), vehicle: saline with Tween-80
# [2] = endpoint: mean survival time, dose: 100.0 mg/kg/injection, schedule: Q01DX009 (ip), vehicle: saline with Tween-80
# [3] = endpoint: mean survival time, dose: 100.0 mg/kg/injection, schedule: Q04DX003 (ip), vehicle: saline with Tween-80
# [4] = endpoint: mean survival time, dose: 200.0 mg/kg/injection, schedule: Q01DX009 (ip), vehicle: saline with Tween-80
# [5] = endpoint: mean survival time, dose: 200.0 mg/kg/injection, schedule: Q04DX003 (ip), vehicle: saline with Tween-80
# [6] = endpoint: mean survival time, dose: 400.0 mg/kg/injection, schedule: Q01DX009 (ip), vehicle: saline with Tween-80
# [7] = endpoint: mean survival time, dose: 400.0 mg/kg/injection, schedule: Q04DX003 (ip), vehicle: saline with Tween-80
# [8] = endpoint: mean survival time, dose: 25.0 mg/kg/injection, schedule: Q04DX003 (ip), vehicle: saline with Tween-80
# [9] = endpoint: mean survival time, dose: 12.5 mg/kg/injection, schedule: Q04DX002 (ip), vehicle: saline with Tween-80
# [10] = endpoint: mean survival time, dose: 25.0 mg/kg/injection, schedule: Q04DX002 (ip), vehicle: saline with Tween-80
# [11] = endpoint: mean survival time, dose: 50.0 mg/kg/injection, schedule: Q04DX002 (ip), vehicle: saline with Tween-80
# [12] = endpoint: mean survival time, dose: 25.0 mg/kg/injection, schedule: Q01DX009 (ip), vehicle: saline
# [13] = endpoint: mean survival time, dose: 50.0 mg/kg/injection, schedule: Q01DX009 (ip), vehicle: saline
# [14] = endpoint: mean survival time, dose: 100.0 mg/kg/injection, schedule: Q04DX002 (ip), vehicle: saline with Tween-80
# [15] = endpoint: mean survival time, dose: 200.0 mg/kg/injection, schedule: Q04DX002 (ip), vehicle: saline with Tween-80
structure (smiles),measurement,setting,value
CC1CCC(n2cnc3c(Cl)ncnc32)O1 (stereo not given),T/C,"endpoint: median survival time, dose: 12.5 mg/kg/injection, schedule: Q01DX009 (ip), vehicle: Klucel (hydroxypropylcellulose) (HPC)",97 % of control and 101 % of control
same,T/C,"endpoint: median survival time, dose: 25.0 mg/kg/injection, schedule: Q01DX009 (ip), vehicle: Klucel (hydroxypropylcellulose) (HPC)",95 % of control and 100 % of control and 105 % of control
same,T/C,"endpoint: median survival time, dose: 50.0 mg/kg/injection, schedule: Q01DX009 (ip), vehicle: Klucel (hydroxypropylcellulose) (HPC)",113 % of control and 93 % of control and 108 % of control
same,T/C,"endpoint: median survival time, dose: 100.0 mg/kg/injection, schedule: Q01DX009 (ip), vehicle: Klucel (hydroxypropylcellulose) (HPC)",102 % of control and 108 % of control and 111 % of control
same,T/C,"endpoint: median survival time, dose: 200.0 mg/kg/injection, schedule: Q01DX009 (ip), vehicle: Klucel (hydroxypropylcellulose) (HPC)",113 % of control (2×) and 114 % of control
CN1CCN(c2ccccc2N)CC1,T/C,"endpoint: mean survival time, dose: 5.0 mg/kg/injection, schedule: Q01DX009 (ip), vehicle: saline with Tween-80",108 % of control
same,T/C,"endpoint: mean survival time, dose: 10.0 mg/kg/injection, schedule: Q01DX009 (ip), vehicle: saline with Tween-80",108 % of control
same,T/C,"endpoint: mean survival time, dose: 20.0 mg/kg/injection, schedule: Q01DX009 (ip), vehicle: saline with Tween-80",102 % of control
CC(O)C(O)C(O)C(/C=N\N=C(/N)[S-])=N/N=C(\N)[S-].[Pt+2] (stereo not given),T/C,[1],111 % of control
same,T/C,[2],91 % of control
same,T/C,[3],88 % of control
same,T/C,"endpoint: mean survival time, dose: 200.0 mg/kg/injection, schedule: Q01DX001 (ip), vehicle: saline with Tween-80",104 % of control
same,T/C,[4],94 % of control
same,T/C,[5],96 % of control
same,T/C,"endpoint: mean survival time, dose: 400.0 mg/kg/injection, schedule: Q01DX001 (ip), vehicle: saline with Tween-80",106 % of control
same,T/C,[6],89 % of control
same,T/C,[7],89 % of control
CC(C)(C)OC(=O)NC(CCCCNC(=O)C(F)(F)F)C(=O)O (stereo not given),T/C,[2],102 % of control
same,T/C,[4],93 % of control
same,T/C,[6],87 % of control
O=S(=O)(O)c1ccc(Nc2ccccc2)cc1,T/C,[2],105 % of control
same,T/C,"endpoint: mean survival time, dose: 100.0 mg/kg/injection, schedule: Q04DX003 (ip), vehicle: saline",104 % of control
same,T/C,[4],97 % of control
same,T/C,"endpoint: mean survival time, dose: 200.0 mg/kg/injection, schedule: Q04DX003 (ip), vehicle: saline",106 % of control
same,T/C,[6],103 % of control
same,T/C,"endpoint: mean survival time, dose: 400.0 mg/kg/injection, schedule: Q04DX003 (ip), vehicle: saline",100 % of control
CCCC(=O)OCC1OC(n2ccc(O)cc2=O)C(O)C1O (stereo not given),T/C,"endpoint: median survival time, dose: 44.0 mg/kg/injection, schedule: Q01DX009 (ip), vehicle: saline + Tween-80 + alcohol",171 % of control
same,T/C,"endpoint: median survival time, dose: 67.0 mg/kg/injection, schedule: Q01DX009 (ip), vehicle: saline + Tween-80 + alcohol",174 % of control
same,T/C,"endpoint: median survival time, dose: 100.0 mg/kg/injection, schedule: Q01DX009 (ip), vehicle: saline + Tween-80 + alcohol",168 % of control
same,T/C,"endpoint: median survival time, dose: 150.0 mg/kg/injection, schedule: Q01DX009 (ip), vehicle: saline + Tween-80 + alcohol",162 % of control
CC(C)c1ccc(NC(=O)Nc2cccc3ccccc23)cc1,T/C,[3],102 % of control
same,T/C,[5],91 % of control
same,T/C,[7],91 % of control
CN1CN(C)C(=O)S(=O)(=O)C1,T/C,[2],105 % of control
same,T/C,[3],92 % of control
same,T/C,[4],103 % of control
same,T/C,[5],93 % of control
same,T/C,[6],107 % of control
same,T/C,[7],98 % of control
COc1cc2c(ccc3c4cc(OC)c(OC)cc4c[n+](C)c23)cc1O,T/C,"endpoint: mean survival time, dose: 80.0 mg/kg/injection, schedule: Q01DX009 (ip), vehicle: saline",150 % of control
same,T/C,"endpoint: mean survival time, dose: 160.0 mg/kg/injection, schedule: Q01DX009 (ip), vehicle: saline with Tween-80",150 % of control
same,T/C,"endpoint: mean survival time, dose: 160.0 mg/kg/injection, schedule: Q01DX009 (ip), vehicle: saline",174 % of control
same,T/C,"endpoint: mean survival time, dose: 320.0 mg/kg/injection, schedule: Q01DX009 (ip), vehicle: saline with Tween-80",87 % of control
same,T/C,"endpoint: mean survival time, dose: 320.0 mg/kg/injection, schedule: Q01DX009 (ip), vehicle: saline",86 % of control
CN(C)c1ccc(/C=C2\C=Nc3ccccc32)cc1,T/C,[8],87 % of control
same,T/C,[3],87 % of control
O=[N+]([O-])c1ccccc1-c1nn(-c2ccccc2)c2ccccc12,T/C,[9],102 % of control
same,T/C,[10],105 % of control
same,T/C,[11],90 % of control
COCNC(=S)N/N=C/c1ccccn1,T/C,"endpoint: mean survival time, dose: 6.25 mg/kg/injection, schedule: Q01DX009 (ip), vehicle: saline with Tween-80",97 % of control
same,T/C,"endpoint: mean survival time, dose: 12.5 mg/kg/injection, schedule: Q01DX009 (ip), vehicle: saline with Tween-80",100 % of control
same,T/C,[9],94 % of control
same,T/C,"endpoint: mean survival time, dose: 25.0 mg/kg/injection, schedule: Q01DX009 (ip), vehicle: saline with Tween-80",97 % of control
same,T/C,[10],97 % of control
same,T/C,"endpoint: mean survival time, dose: 50.0 mg/kg/injection, schedule: Q01DX009 (ip), vehicle: saline with Tween-80",122 % of control
same,T/C,[11],97 % of control
CC(=O)O.[Ag],T/C,"endpoint: mean survival time, dose: 5.0 mg/kg/injection, schedule: Q01DX001 (ip), vehicle: saline",93 % of control
same,T/C,"endpoint: mean survival time, dose: 10.0 mg/kg/injection, schedule: Q01DX001 (ip), vehicle: saline",96 % of control
same,T/C,"endpoint: mean survival time, dose: 20.0 mg/kg/injection, schedule: Q01DX001 (ip), vehicle: saline",97 % of control
same,T/C,"endpoint: mean survival time, dose: 40.0 mg/kg/injection, schedule: Q01DX001 (ip), vehicle: saline",100 % of control
same,T/C,"endpoint: mean survival time, dose: 80.0 mg/kg/injection, schedule: Q01DX001 (ip), vehicle: saline",100 % of control
same,T/C,"endpoint: mean survival time, dose: 100.0 mg/kg/injection, schedule: Q01DX001 (ip), vehicle: saline",91 % of control
COc1nc(NC2OCC(O)C(O)C2O)c(Br)c(=O)n1C (stereo not given),T/C,"endpoint: median survival time, dose: 12.5 mg/kg/injection, schedule: Q01DX005 (ip), vehicle: saline with Tween-80",100 % of control
same,T/C,"endpoint: median survival time, dose: 25.0 mg/kg/injection, schedule: Q01DX005 (ip), vehicle: saline with Tween-80",101 % of control
same,T/C,"endpoint: median survival time, dose: 50.0 mg/kg/injection, schedule: Q01DX005 (ip), vehicle: saline with Tween-80",101 % of control
same,T/C,"endpoint: median survival time, dose: 100.0 mg/kg/injection, schedule: Q01DX005 (ip), vehicle: saline with Tween-80",101 % of control
same,T/C,"endpoint: median survival time, dose: 200.0 mg/kg/injection, schedule: Q01DX005 (ip), vehicle: saline with Tween-80",101 % of control
CCC(CCC(C)C1CCC2C3CC=C4CC(O)CCC4(C)C3CCC12C)C(C)C (stereo not given) (tested in a mixture with another compound),T/C,"endpoint: mean survival time, dose: 25.0 mg/kg/injection, schedule: Q01DX009 (ip), vehicle: acetone",93 % of control
same,T/C,"endpoint: mean survival time, dose: 100.0 mg/kg/injection, schedule: Q01DX009 (ip), vehicle: acetone",87 % of control
OCCC1CC1=C1CC1 (stereo not given),T/C,"endpoint: mean survival time, dose: 100.0 mg/kg/injection, schedule: Q04DX003 (ip), vehicle: Klucel (hydroxypropylcellulose) (HPC)",101 % of control
same,T/C,"endpoint: mean survival time, dose: 200.0 mg/kg/injection, schedule: Q04DX003 (ip), vehicle: Klucel (hydroxypropylcellulose) (HPC)",101 % of control
C1CNC2NCCNC2N1 (stereo not given),T/C,[2],101 % of control
same,T/C,"endpoint: mean survival time, dose: 100.0 mg/kg/injection, schedule: Q04DX003 (ip), vehicle: saline sonified",109 % of control
same,T/C,[4],102 % of control
same,T/C,"endpoint: mean survival time, dose: 200.0 mg/kg/injection, schedule: Q04DX003 (ip), vehicle: saline sonified",103 % of control
same,T/C,[6],108 % of control
same,T/C,"endpoint: mean survival time, dose: 400.0 mg/kg/injection, schedule: Q04DX003 (ip), vehicle: saline sonified",115 % of control
CC(=O)NC(CSC(c1ccccc1)(c1ccccc1)c1ccccc1)C(=O)O (stereo not given),T/C,[12],101 % of control
same,T/C,[13],100 % of control
same,T/C,"endpoint: mean survival time, dose: 100.0 mg/kg/injection, schedule: Q01DX009 (ip), vehicle: saline",101 % of control
NNS(=O)(=O)c1ccccc1,T/C,[8],97 % of control
same,T/C,"endpoint: mean survival time, dose: 50.0 mg/kg/injection, schedule: Q04DX003 (ip), vehicle: saline with Tween-80",97 % of control
same,T/C,[3],94 % of control
C1CSCCSCCCSCCSC1,T/C,[11],96 % of control
same,T/C,[14],108 % of control
same,T/C,[15],101 % of control
CC(C)C(C)CCC(C)C1CCC2C3CC=C4CC(O)CCC4(C)C3CCC12C (stereo not given),T/C,"endpoint: mean survival time, dose: 25.0 mg/kg/injection, schedule: Q01DX001 (ip), vehicle: saline with Tween-80",91 % of control
same,T/C,"endpoint: mean survival time, dose: 50.0 mg/kg/injection, schedule: Q01DX001 (ip), vehicle: saline with Tween-80",94 % of control
same,T/C,[1],97 % of control
ClC1CN2CCC1CC2 (stereo not given),T/C,"endpoint: mean survival time, dose: 12.5 mg/kg/injection, schedule: Q01DX009 (ip), vehicle: saline",95 % of control
same,T/C,[12],90 % of control and 105 % of control
same,T/C,[13],93 % of control and 94 % of control
O=C(O)C1Cc2c([nH]c3ccccc23)C2CC(C3CC4c5[nH]c6ccccc6c5CC(C(=O)O)N4C3=O)C(=O)N12 (stereo not given),T/C,[14],97 % of control
same,T/C,[15],93 % of control
same,T/C,"endpoint: mean survival time, dose: 400.0 mg/kg/injection, schedule: Q04DX002 (ip), vehicle: saline with Tween-80",89 % of control
